Results: ChEMBL document CHEMBL1201862, “PubChem BioAssay data set” (2004)
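Step 1: Grow cells in 96-well plates. Step 2: Expose to compound for 48 hours at 5 concentrations. Step 3: Interpolate endpoints linearly; if unreached, use highest concentration. At the GI50, growth is halved.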 The source made the active and inactive calls. No stated cut-off is given here; in the data, active = GI50 up to about 1.1 µM and inactive = higher.

Experiments:
Experiment in all cases: inhibition of tumour cell growth, NCI panel, 48 h
NCI-H226 = system: NCI-H226
NCI-H23 = system: NCI-H23
HOP-92 = system: HOP-92
COLO 205 = system: COLO 205
UO-31 = system: UO-31
IGROV-1 = system: IGROV-1
LXFL 529 = system: LXFL 529
MOLT-4 = system: MOLT-4
786-0 = system: 786-0
SNB-75 = system: SNB-75
A498 = system: A498
CCRF-CEM = system: CCRF-CEM
LOX IMVI = system: LOX IMVI
SK-MEL-28 = system: SK-MEL-28
M14 = system: M14
SF-539 = system: SF-539
HCC 2998 = system: HCC 2998

Measured: GI50

BrC1=CC=C2NC=CC3=CC=NC1C32 (configuration not stated)
inactive: NCI-H226 14.2 µM | NCI-H23 7.71 µM | HOP-92 15.7 µM | COLO 205 21.6 µM | UO-31 14.5 µM | IGROV-1 25.6 µM | LXFL 529 19.5 µM | MOLT-4 2.75 µM | 786-0 8.34 µM | SNB-75 18.3 µM | A498 30.3 µM | CCRF-CEM 6.22 µM | LOX IMVI 9.55 µM | SK-MEL-28 37.7 µM | M14 18 µM | SF-539 12.6 µM | HCC 2998 35.1 µM

COc1cc2c(oc(=O)c3c4occc4cc(OC)c23)c2cccc(O)c12
inactive: NCI-H226 > 100 µM | NCI-H23 > 100 µM | HOP-92 > 100 µM | COLO 205 > 100 µM | UO-31 > 100 µM | IGROV-1 > 100 µM | LXFL 529 > 100 µM | MOLT-4 > 100 µM | 786-0 > 100 µM | SNB-75 83.6 µM | A498 > 100 µM | CCRF-CEM > 100 µM | LOX IMVI > 100 µM | SK-MEL-28 > 100 µM | M14 > 100 µM | SF-539 > 100 µM | HCC 2998 > 100 µM

CC#C[I+]c1ccccc1
inactive: NCI-H226 33 µM | NCI-H23 18.1 µM | HOP-92 16.4 µM | COLO 205 12.9 µM | UO-31 30.3 µM | IGROV-1 37.4 µM | LXFL 529 13.4 µM | MOLT-4 12.1 µM | 786-0 14.6 µM | SNB-75 50 µM | A498 60.5 µM | CCRF-CEM 4.17 µM | LOX IMVI 13.8 µM | SK-MEL-28 23.6 µM | M14 17.3 µM | SF-539 18.2 µM | HCC 2998 20 µM

CC(=O)c1cccc(NCn2nnc3ccccc32)c1
inactive: NCI-H226 > 100 µM | NCI-H23 > 100 µM | HOP-92 > 100 µM | COLO 205 > 100 µM | UO-31 > 100 µM | IGROV-1 > 100 µM | LXFL 529 > 100 µM | MOLT-4 > 100 µM | 786-0 > 100 µM | SNB-75 > 100 µM | A498 > 100 µM | CCRF-CEM > 100 µM | LOX IMVI > 100 µM | SK-MEL-28 > 100 µM | M14 > 100 µM | SF-539 > 100 µM | HCC 2998 > 100 µM

COC(=O)C1=C(O)c2cc(OC)c(OC)cc2C(c2ccc(OC)c(OC)c2)C1 (configuration not stated)
inactive: NCI-H226 > 100 µM | NCI-H23 > 100 µM | HOP-92 > 100 µM | COLO 205 38.6 µM | UO-31 > 100 µM | IGROV-1 > 100 µM | LXFL 529 43.3 µM | MOLT-4 88.5 µM | 786-0 > 100 µM | SNB-75 > 100 µM | A498 36.3 µM | CCRF-CEM > 100 µM | LOX IMVI 69.5 µM | SK-MEL-28 > 100 µM | M14 > 100 µM | SF-539 > 100 µM | HCC 2998 > 100 µM

Cn1cnc([N+](=O)[O-])c1SC1=NCCS1
inactive: NCI-H226 > 100 µM | NCI-H23 81.1 µM | HOP-92 37.4 µM | COLO 205 70 µM | UO-31 74.6 µM | IGROV-1 > 100 µM | LXFL 529 27 µM | MOLT-4 25.6 µM | 786-0 > 100 µM | SNB-75 > 100 µM | A498 > 100 µM | CCRF-CEM 28.2 µM | LOX IMVI 17.3 µM | SK-MEL-28 55 µM | M14 48 µM | SF-539 > 100 µM | HCC 2998 > 100 µM
